IC50 data for 27 molecules are collected here from patent US9637473B2, “Acrylamide derivatives as antimalarial agents” (priority 2013, dated 2017).

Counter-ions that a name gives are not always drawn.

One experiment relates to P. Falciparum NF54. In words: Plasmodium falciparum in vitro assay ([3H]-hypoxanthine incorporation). Format: cell-based. The settings on record: P. Falciparum NF54, erythrocytic stages in human red blood cells, 50% human serum. As for the experimental part: In Vitro Antimalarial Activity: Plasmodium falciparum In Vitro Assay: In vitro activity against erythrocytic stages of P. Falciparum in human red blood cells is determined using a [^3H]-hypoxanthine incorporation assay. One strain sensitive to all drugs (P. […] After 48 hours, [^3H]-hypoxanthine (0.5 μCi) is added to each well of a plate. The plates are incubated for a further 24 hours under the same conditions then harvested with a Betaplate cell harvester (Wallac) and washed with distilled water. The dried filters are inserted into a plastic foil with 10 mL of scintillation fluid and counted in a Betaplate liquid scintillation counter. IC50 values are calculated from sigmoidal inhibition curves using Microsoft Excel.
By IC50 is commonly meant the concentration at which inhibition is half-maximal. A higher IC50 goes with weaker potency in that assay. `CN1CCC(N2CCC(N(Cc3ccc(N(C)c4ccncc4)cc3)C(=O)/C=C/c3ccc(C(F)(F)F)cc3)C(F)C2)CC1` (racemic) [Example 79, (±)-(E)-N-(trans-3-fluoro-1′-methyl-[1,4′-bipiperidin]-4-yl)-N-(4-(methyl(pyridin-4-yl)amino)benzyl)-3-(4-(trifluoromethyl)phenyl)acrylamide] returned an IC50 of 21 nM.

For the molecule `CN(c1ccncc1)c1ccc(CN(C(=O)/C=C/c2ccc(C(F)(F)F)cc2)[C@H]2CCCNC2)cc1` [Example 2, (E)-N-[4-(Methyl-pyridin-4-yl-amino)-benzyl]-N-(S)-piperidin-3-yl-3-(4-trifluoromethyl-phenyl)-acrylamide], the 50% inhibitory concentration (IC50) amounted to 82 nM.

The experiment is the same for the next values; noted with them: Plasmodium falciparum, Erythrocyte, P. Falciparum NF54, erythrocytic stages in human red blood cells, 50% human serum.
For the molecule `Cc1cc(Nc2cccc(CN(C(=O)/C=C/c3ccc(C(F)(F)F)cc3)C3CCN(C(C)C)CC3)n2)ccn1` [Example 129, (E)-N-(1-Isopropyl-piperidin-4-yl)-N-[6-(2-methyl-pyridin-4-ylamino)-pyridin-2-ylmethyl]-3-(4-trifluoromethyl-phenyl)-acrylamide formate], half-maximal inhibition (IC50) required 21 nM.

For `Cc1ncc(CN2CCC(N(Cc3ccc(N(C)c4ccncc4)cc3)C(=O)/C=C/c3ccc(C(F)(F)F)cc3)CC2)cn1` [Example 24, (E)-N-[4-(Methyl-pyridin-4-yl-amino)-benzyl]-N-[1-(2-methyl-pyrimidin-5-ylmethyl)-piperidin-4-yl]-3-(4-trifluoromethyl-phenyl)-acrylamide], the IC50 was determined as 328 nM.

In the case of `O=C(/C=C/c1ccc(C(F)(F)F)cc1)N(Cc1ccc(Nc2ccncc2)nc1)C1CCN(C2CCCC2)CC1` [Example 103, (E)-N-(1-Cyclopentyl-piperidin-4-yl)-N-[6-(pyridin-4-ylamino)-pyridin-3-ylmethyl]-3-(4-trifluoromethyl-phenyl)-acrylamide], the IC50 amounted to 44 nM.

`CN(c1ccncc1)c1ccc(CN(C(=O)/C=C/c2ccc(C(F)(F)F)cc2)[C@@H]2CCCN(C3CCCC3)C2)cc1` [Example 59, (R,E)-N-(1-cyclopentylpiperidin-3-yl)-N-(4-(methyl(pyridin-4-yl)amino)benzyl)-3-(4-(trifluoromethyl)phenyl)acrylamide]: the IC50 amounted to 80 nM.

In the case of `CN(c1ccncc1)c1ccc(CN(C(=O)/C=C/c2ccc(C(F)(F)F)cc2)C2CN(C3CCCC3)C2)cc1` [Example 102, (E)-N-(1-Cyclopentyl-azetidin-3-yl)-N-[4-(methyl-pyridin-4-yl-amino)-benzyl]-3-(4-trifluoromethyl-phenyl)-acrylamide], half-maximal inhibition (IC50) required 81 nM. This IC50 and that of the molecule before are within 1.5-fold of each other.

Take `CN1CCC(N2CCCCC(N(Cc3ccc(N(C)c4ccncc4)cc3)C(=O)/C=C/c3ccc(C(F)(F)F)cc3)C2)CC1` (racemic) [Example 70, (±)-(E)-N-(4-(methyl(pyridin-4-yl)amino)benzyl)-N-(1-(1-methylpiperidin-4-yl)azepan-3-yl)-3-(4-(trifluoromethyl)phenyl)acrylamide]: 20 nM corresponded to half-maximal inhibition (IC50).

For `CC(C)N1CCC(N(Cc2cncc(N(C)c3cccnc3)c2)C(=O)/C=C/c2ccc(C(F)(F)F)cc2)CC1` [Example 134, (E)-N-(1-Isopropyl-piperidin-4-yl)-N-[5-(methyl-pyridin-3-yl-amino)-pyridin-3-ylmethyl]-3-(4-trifluoromethyl-phenyl)-acrylamide formate], 213 nM corresponded to half-maximal inhibition (IC50).

In the case of `CC(C)CCN1CCCCC(N(Cc2ccc(N(C)c3ccncc3)cc2)C(=O)/C=C/c2ccc(C(F)(F)F)cc2)C1` (racemic) [Example 72, (±)-(E)-N-(1-isopentylazepan-3-yl)-N-(4-(methyl(pyridin-4-yl)amino)benzyl)-3-(4-(trifluoromethyl)phenyl)acrylamide], the IC50 was 152 nM.

As to `CN1CCC(N2CCC(N(Cc3ccc(N(C)c4ccncc4)cc3)C(=O)/C=C/c3ccc(Cl)cc3)CC2)CC1` [Example 180, (E)-3-(4-Chloro-phenyl)-N-(1′-methyl-[1,4′]bipiperidinyl-4-yl)-N-[4-(methyl-pyridin-4-yl-amino)-benzyl]-acrylamide], inhibition was half-maximal at 21 nM (IC50).

As for `CN1CCC(N2CC3(CC(N(Cc4ccc(N(C)c5ccncc5)cc4)C(=O)/C=C/c4ccc(C(F)(F)F)cc4)C3)C2)CC1` [Example 73, (E)-N-(4-(methyl(pyridin-4-yl)amino)benzyl)-N-(2-(1-methylpiperidin-4-yl)-2-azaspiro[3.3]heptan-6-yl)-3-(4-(trifluoromethyl)phenyl)acrylamide], the IC50 is 42 nM. This IC50 lies about 2-fold higher than the previous one.

Regarding `CN(c1ccncc1)c1ccc(CN(C(=O)/C=C/c2ccc(C(F)(F)F)cc2)[C@H]2CC[C@@H](N3CCCC3)CC2)cc1` [Example 192, (±)-cis-(E)-N-[4-(Methyl-pyridin-4-yl-amino)-benzyl]-N-(4-pyrrolidin-1-yl-cyclohexyl)-3-(4-trifluoromethyl-phenyl)-acrylamide], the midpoint of inhibition, the IC50, lay at 25 nM. This IC50 is about 1.7-fold lower than that of the molecule before.

On to `Cc1cc(Nc2ccc(CN(C(=O)/C=C/c3ccc(C(F)(F)F)cc3)C3CCN(Cc4c(C)noc4C)CC3)cc2)ccn1` [Example 44, (E)-N-[1-(3,5-Dimethyl-isoxazol-4-ylmethyl)-piperidin-4-yl]-N-[4-(2-methyl-pyridin-4-ylamino)-benzyl]-3-(4-trifluoromethyl-phenyl)-acrylamide], for which inhibition was half-maximal at 64 nM (IC50).

As for `O=C(/C=C/c1ccc(C(F)(F)F)cc1)N(Cc1ccc(Nc2ccncn2)cc1)C1CCN(C2CCCC2)CC1` [Example 92, (E)-N-(1-Cyclopentyl-piperidin-4-yl)-N-[4-(pyrimidin-4-ylamino)-benzyl]-3-(4-trifluoromethyl-phenyl)-acrylamide], the IC50 came to 269 nM.

Consider `CN(c1ccncc1)c1ccc(CN(C(=O)/C=C/c2ccc(C(F)(F)F)cc2)C2CCN(Cc3ccc(C(F)(F)F)cc3)CC2)cc1` [Example 3, (E)-N-[4-(Methyl-pyridin-4-yl-amino)-benzyl]-N-[1-(4-trifluoromethyl-benzyl)-piperidin-4-yl]-3-(4-trifluoromethyl-phenyl)-acrylamide], for which the IC50 came out at 72 nM. Against the preceding molecule, the IC50 is about 3.7-fold lower.

For `CN1CCC(N2CCC(N(Cc3ccc(Nc4ccncc4)cc3)C(=O)/C=C/c3ccc(C(F)(F)F)cc3)CC2)CC1` [Example 115, (E)-N-(1′-Methyl-[1,4′]bipiperidinyl-4-yl)-N-[4-(pyridin-4-ylamino)-benzyl]-3-(4-trifluoromethyl-phenyl)-acrylamide], the IC50 was 82 nM.

In turn, `CN(c1ccncc1)c1ccc(CN(C(=O)/C=C/c2ccc(C(F)(F)F)cc2)C2CCN(CCc3ccccc3)CC2)cc1` [Example 14, (E)-N-[4-(Methyl-pyridin-4-yl-amino)-benzyl]-N-(1-phenethyl-piperidin-4-yl)-3-(4-trifluoromethyl-phenyl)-acrylamide] returned an IC50 of 55 nM.

`CN(c1ccncc1)c1ccc(CN(C(=O)/C=C/c2ccc(C(F)(F)F)cc2)C2CCCCN(C3CCCC3)C2)cc1` (racemic) [Example 71, (±)-(E)-N-(1-cyclopentylazepan-3-yl)-N-(4-(methyl(pyridin-4-yl)amino)benzyl)-3-(4-(trifluoromethyl)phenyl)acrylamide] registered a concentration for half-maximal inhibition (IC50) of 167 nM.

Regarding `CC(C)N1CCN(c2ccc(CN(C(=O)/C=C/c3ccc(C(F)(F)F)cc3)C3CCN(C4CCCC4)CC3)cc2)CC1` [Example 199, (E)-N-(1-Cyclopentyl-piperidin-4-yl)-N-[4-(4-isopropyl-piperazin-1-yl)-benzyl]-3-(4-trifluoromethyl-phenyl)-acrylamide], half-maximal inhibition (IC50) required 96 nM.

On to `CN(c1ccncc1)c1ccc(CN(C(=O)/C=C/c2ccc(C(F)(F)F)cc2)C2CCN(CC3CC4C=CC3C4)CC2)cc1` (stereo not drawn) [Example 10, (E)-N-(1′-Bicyclo[2.2.1]hept-5-en-2-ylmethyl-piperidin-4-yl)-N-[4-(methyl-pyridin-4-yl-amino)-benzyl]-3-(4-trifluoromethyl-phenyl)-acrylamide], for which 14 nM corresponded to half-maximal inhibition (IC50). This IC50 is about 6.9-fold lower than that of the molecule before.

Regarding `Cc1cc(Nc2ccc(CN(C(=O)/C=C/c3ccc(C(F)(F)F)cc3)C3CCN(Cc4cccnc4)CC3)cc2)ccn1` [Example 48, (E)-N-[4-(2-Methyl-pyridin-4-ylamino)-benzyl]-N-(1-pyridin-3-ylmethyl-piperidin-4-yl)-3-(4-trifluoromethyl-phenyl)-acrylamide], 101 nM corresponded to half-maximal inhibition (IC50).

Turning to `CN1CCC(N2CCC(N(Cc3ccc(C(=O)c4ccncc4)cc3)C(=O)/C=C/c3ccc(C(F)(F)F)cc3)CC2)CC1` [Example 194, (E)-N-(1′-Methyl-[1,4′]bipiperidinyl-4-yl)-N-[4-(pyridine-4-carbonyl)-benzyl]-3-(4-trifluoromethyl-phenyl)-acrylamide], it took 127 nM to reach half-maximal inhibition (IC50).

As to `CN1CCN(c2ccc(CN(C(=O)/C=C/c3ccc(C(F)(F)F)cc3)C3CCN(C4CCCC4)CC3)cc2)CC1` [Example 200, (E)-N-(1-Cyclopentyl-piperidin-4-yl)-N-[4-(4-methyl-piperazin-1-yl)-benzyl]-3-(4-trifluoromethyl-phenyl)-acrylamide], the IC50 is 232 nM.

`CC(C)N1CCC(N(Cc2cccc(Nc3ccncc3)c2)C(=O)/C=C/c2ccc(C(F)(F)F)cc2)CC1` [Example 126, (E)-N-(1-Isopropyl-piperidin-4-yl)-N-[3-(pyridin-4-ylamino)-benzyl]-3-(4-trifluoromethyl-phenyl)-acrylamide formate] displayed an IC50 of 30 nM.

In turn, `O=C(/C=C/c1ccc(C(F)(F)F)cc1)N(Cc1ccc(Nc2ccncn2)nc1)C1CCN(C2CCCC2)CC1` [Example 107, (E)-N-(1-Cyclopentyl-piperidin-4-yl)-N-[6-(pyrimidin-4-ylamino)-pyridin-3-ylmethyl]-3-(4-trifluoromethyl-phenyl)-acrylamide] registered an IC50 of 420 nM.

As to `CC(=O)n1cc(CN2CCC(N(Cc3ccc(N(C)c4ccncc4)cc3)C(=O)/C=C/c3ccc(C(F)(F)F)cc3)CC2)c2ccccc21` [Example 28, (E)-N-[1-(1-Acetyl-1H-indol-3-ylmethyl)-piperidin-4-yl]-N-[4-(methyl-pyridin-4-yl-amino)-benzyl]-3-(4-trifluoromethyl-phenyl)-acrylamide], the midpoint of inhibition, the IC50, lay at 44 nM.
